From patent US20240391931A1 (Bristol-Myers Squibb Company, priority 2021, published 2024)
pEC50, pIC50: −log10 of the molar value.

Columns and labels:
EGFR WT = target: T1, EGFR WT (Homo sapiens, UniProt P00533); experiment: Enzymatic assay EGFR WT (method c); assay type: biochemical; conditions: [EGFR WT]=2 nM, [ATP]=1 mM, [Peptide 22]=1 μM
T1 construct: purchased Thermo Fisher, Carlsbad, CA ERBB1 PR7295B
Procedure, shortened: (§1)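 Microfluidic mobility-shift kinase assay with Peptide 22 (1 μM) in HEPES pH 7.5, MnCl2, MgCl2, Tween 20, TCEP. HER2 WT 12.5 nM and HER2 YVMA 5 nM each used 25 μM ATP; EGFR WT 2 nM used 1 mM ATP. IC50 came from initial-velocity (0–3600 s) percent inhibition, fitted to a variable-slope model.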

EGFR = EGFR (Homo sapiens, UniProt P00533); experiment: EGFR signaling (pEGFR Tyr1068/total EGFR MSD) in A431 cells; assay type: cell-based; design: endogenous in cells; host or cells: A431, N87; conditions: for pEC50: A431 cells, read-out: A431 pEGFR EC50; for Selectivity A431 EC50/BT474 EC50: ratio A431 pEGFR EC50 to BT474 pHER2 EC50; for Selectivity A431 EC50/HEKYVMA EC50: ratio A431 pEGFR EC50 to HEK YVMA pHER2 EC50
EGFR, sequence (P00533 25-1210): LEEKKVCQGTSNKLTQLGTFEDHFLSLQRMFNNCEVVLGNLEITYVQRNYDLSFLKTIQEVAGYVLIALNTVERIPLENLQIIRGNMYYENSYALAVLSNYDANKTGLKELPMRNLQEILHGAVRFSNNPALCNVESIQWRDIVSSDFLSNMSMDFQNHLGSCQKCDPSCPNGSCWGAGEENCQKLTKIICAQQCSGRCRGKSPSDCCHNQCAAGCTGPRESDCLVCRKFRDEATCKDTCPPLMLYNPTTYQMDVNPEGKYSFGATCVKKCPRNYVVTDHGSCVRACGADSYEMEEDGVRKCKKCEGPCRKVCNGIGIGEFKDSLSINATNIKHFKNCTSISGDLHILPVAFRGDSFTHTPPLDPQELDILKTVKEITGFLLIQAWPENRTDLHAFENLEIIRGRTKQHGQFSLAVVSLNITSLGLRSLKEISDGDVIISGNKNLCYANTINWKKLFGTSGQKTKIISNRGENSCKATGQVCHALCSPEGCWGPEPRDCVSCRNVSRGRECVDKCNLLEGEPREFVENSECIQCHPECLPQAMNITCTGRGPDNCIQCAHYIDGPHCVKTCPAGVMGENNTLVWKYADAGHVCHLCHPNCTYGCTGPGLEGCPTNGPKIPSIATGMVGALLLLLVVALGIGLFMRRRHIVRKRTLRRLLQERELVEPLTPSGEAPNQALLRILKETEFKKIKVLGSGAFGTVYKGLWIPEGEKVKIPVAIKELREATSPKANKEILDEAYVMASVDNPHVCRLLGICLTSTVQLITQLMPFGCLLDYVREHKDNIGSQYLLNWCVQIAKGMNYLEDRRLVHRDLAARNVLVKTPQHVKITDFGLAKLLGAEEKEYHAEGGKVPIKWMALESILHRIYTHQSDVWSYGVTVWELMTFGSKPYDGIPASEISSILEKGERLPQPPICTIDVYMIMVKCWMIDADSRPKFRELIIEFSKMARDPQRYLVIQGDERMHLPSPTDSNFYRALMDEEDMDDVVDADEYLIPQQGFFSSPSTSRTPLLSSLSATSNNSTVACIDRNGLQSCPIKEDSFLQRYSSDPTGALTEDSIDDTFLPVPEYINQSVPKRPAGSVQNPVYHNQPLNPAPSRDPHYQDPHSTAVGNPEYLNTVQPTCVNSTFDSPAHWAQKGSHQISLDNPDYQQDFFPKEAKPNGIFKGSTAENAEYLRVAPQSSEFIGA
Procedure, shortened: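 Serum-starved A431 cells were pretreated 1.5 h in 1% FBS with compound (0.005–10 μM, 0.1% DMSO), then stimulated with 100 ng/mL human EGF for 10 min. Lysate pEGFR Tyr1068 was measured by MSD and normalized to total EGFR as % DMSO control; EC50 from variable-slope sigmoidal fit.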

HER2 WT = target: T2, HER2 WT (Homo sapiens, UniProt P04626); experiment: Enzymatic assay HER2 WT (method a); assay type: biochemical; conditions: [HER2 WT]=12.5 nM, [ATP]=25 μM, [Peptide 22]=1 μM
T2 construct: purchased ProQinase, Freiburg, Germany ERBB2 0108-0000-1
T2 sequence (P04626 23-1255): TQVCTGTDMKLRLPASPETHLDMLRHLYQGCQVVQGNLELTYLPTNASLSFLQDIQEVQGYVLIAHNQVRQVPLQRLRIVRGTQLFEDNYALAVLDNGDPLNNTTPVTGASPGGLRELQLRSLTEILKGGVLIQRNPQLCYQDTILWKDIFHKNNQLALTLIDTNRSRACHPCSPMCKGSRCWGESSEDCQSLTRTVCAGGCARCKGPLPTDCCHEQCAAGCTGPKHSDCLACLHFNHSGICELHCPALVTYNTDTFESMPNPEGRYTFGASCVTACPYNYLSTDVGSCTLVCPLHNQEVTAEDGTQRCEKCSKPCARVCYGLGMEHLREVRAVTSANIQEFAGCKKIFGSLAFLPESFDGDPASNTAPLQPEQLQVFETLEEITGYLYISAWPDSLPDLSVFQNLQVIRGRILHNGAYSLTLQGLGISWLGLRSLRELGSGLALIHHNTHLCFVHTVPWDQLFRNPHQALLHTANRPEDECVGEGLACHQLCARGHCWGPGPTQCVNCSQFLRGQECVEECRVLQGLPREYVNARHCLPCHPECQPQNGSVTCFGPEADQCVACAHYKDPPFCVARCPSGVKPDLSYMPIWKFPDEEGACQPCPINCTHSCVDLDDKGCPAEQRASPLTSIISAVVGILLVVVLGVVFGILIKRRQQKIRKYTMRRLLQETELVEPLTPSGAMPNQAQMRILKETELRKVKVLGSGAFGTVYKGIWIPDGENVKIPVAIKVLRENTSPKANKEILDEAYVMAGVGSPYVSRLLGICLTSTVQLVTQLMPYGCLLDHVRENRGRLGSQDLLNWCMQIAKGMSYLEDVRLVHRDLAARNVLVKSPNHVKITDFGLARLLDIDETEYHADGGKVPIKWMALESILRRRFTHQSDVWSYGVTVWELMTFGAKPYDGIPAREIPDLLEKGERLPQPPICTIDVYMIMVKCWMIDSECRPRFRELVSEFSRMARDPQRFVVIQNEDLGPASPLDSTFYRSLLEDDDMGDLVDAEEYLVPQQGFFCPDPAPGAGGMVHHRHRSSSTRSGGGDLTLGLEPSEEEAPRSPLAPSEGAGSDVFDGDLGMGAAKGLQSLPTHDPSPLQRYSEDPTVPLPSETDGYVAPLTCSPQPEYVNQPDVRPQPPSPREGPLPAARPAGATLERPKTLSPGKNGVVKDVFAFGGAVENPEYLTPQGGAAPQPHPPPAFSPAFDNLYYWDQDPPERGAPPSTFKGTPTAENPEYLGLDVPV
Procedure, shortened: as §1

T1 sequence (P00533 25-1210): as the sequence (P00533 25-1210) above

| SMILES | pIC50 (EGFR WT) | pEC50 (EGFR) | Selectivity A431 EC50/BT474 EC50 (EGFR) | Selectivity A431 EC50/HEKYVMA EC50 (EGFR) | pIC50 (HER2 WT) |
| --- | --- | --- | --- | --- | --- |
| COc1ccc(Oc2ccc(Nc3ncnc4sc5c(c34)CCN(C(=O)/C=C/CN(C)C(C)(C)C)C5)cc2C)cn1 [Compound 163] | < 5.00 | > 7.00 | D (D: ≥ 5 and < 10) | E (E: >1 and < 5) | > 7.00 |
| COc1ccc(Oc2ccc(Nc3ncnc4sc5c(c34)CCN(C(=O)/C=C/CN3CCOCC3)C5)cc2C)cn1 [Compound 164] | < 5.00 | 6.00 to 7.00 | C (C: ≥ 10 and < 20) | D (D: ≥ 5 and < 10) | 6.00 to 7.00 |
| Cc1ccc(Oc2ccc(Nc3ncnc4sc5c(c34)CCN(C(=O)/C=C/CN(C)C)CC5)cc2Cl)cn1 [Compound 167, (E)-1-(4-((3-Chloro-4-((6-methylpyridin-3-yl)oxy)phenyl)amino)-8,9-dihydro-5H-pyrimido[5′,4′:4,5]thieno[2,3-d]azepin-7(6H)-yl)-4-(dimethylamino)but-2-en-1-one] | < 5.00 | 6.00 to 7.00 | B (B: ≥ 20 and < 100) | E (E: >1 and < 5) | 6.00 to 7.00 |
| Cc1cc(Nc2ncnc3sc4c(c23)CCN(C(=O)/C=C/CN(C)C)CC4)ccc1Oc1ccn2ncnc2c1 [Compound 168] | < 5.00 | 5.00 to 6.00 | A (A: ≥100) | B (B: ≥ 20 and < 100) | > 7.00 |
| Cc1ccc(Oc2ccc(Nc3ncnc4sc5c(c34)C(C)CN(C(=O)/C=C/CN(C)C)C5)cc2Cl)cn1 (stereo not drawn) [Compound 171, (E)-1-(4-((3-Chloro-4-((6-methylpyridin-3-yl)oxy)phenyl)amino)-5-methyl-5,6-dihydropyrido[4′,3′:4,5]thieno[2,3-d]pyrimidin-7(8H)-yl)-4-(dimethylamino)but-2-en-1-one] | < 5.00 | > 7.00 | A (A: ≥100) | E (E: >1 and < 5) | > 7.00 |
| Cc1cc(Nc2ncnc3sc4c(c23)CCN(C(=O)/C=C/CN(C)C)CC4)ccc1Oc1ccn2ccnc2c1 [Compound 172, (E)-4-(Dimethylamino)-1-(4-((4-(imidazo[1,2-a]pyridin-7-yloxy)-3-methylphenyl)amino)-8,9-dihydro-5H-pyrimido[5′,4′:4,5]thieno[2,3-d]azepin-7(6H)-yl)but-2-en-1-one] | < 5.00 | 5.00 to 6.00 | B (B: ≥ 20 and < 100) | C (C: ≥ 10 and < 20) | > 7.00 |
| COc1ccc(Oc2ccc(Nc3ncnc4sc5c(c34)CCN(C(=O)/C=C/CN(C)C)CC5)cc2C)cn1 [Compound 173, (E)-4-(Dimethylamino)-1-(4-((4-((6-methoxypyridin-3-yl)oxy)-3-methylphenyl)amino)-8,9-dihydro-5H-pyrimido[5′,4′:4,5]thieno[2,3-d]azepin-7(6H)-yl)but-2-en-1-one] | < 5.00 | 5.00 to 6.00 | B (B: ≥ 20 and < 100) | C (C: ≥ 10 and < 20) | 6.00 to 7.00 |
| Cc1ccc(Oc2ccc(Nc3ncnc4sc5c(c34)C(C)CN(C(=O)/C=C/CN3CCOCC3)C5)cc2C)cn1 (stereo not drawn) [Compound 174, (E)-1-(5-Methyl-4-((3-methyl-4-((6-methylpyridin-3-yl)oxy)phenyl)amino)-5,6-dihydropyrido[4′,3′:4,5]thieno[2,3-d]pyrimidin-7(8H)-yl)-4-morpholinobut-2-en-1-one] | < 5.00 | 6.00 to 7.00 | B (B: ≥ 20 and < 100) | C (C: ≥ 10 and < 20) | 6.00 to 7.00 |
| Cc1ccc(Oc2ccc(Nc3ncnc4sc5c(c34)C(C)CN(C(=O)/C=C/CN(C)C(C)(C)C)C5)cc2C)cn1 (stereo not drawn) [Compound 175] | < 5.00 | > 7.00 | C (C: ≥ 10 and < 20) | E (E: >1 and < 5) | > 7.00 |
